These results are taken from US20190364896A1, “SYNERGISTIC WEED CONTROL FROM APPLICATIONS OF PYRIDINE CARBOXYLIC ACID HERBICIDES AND ALS INHIBITORS” (Dow AgroSciences LLC, priority 2014, published 2019).

The structures appear in SMILES notation. Where two headings read alike, the source gives them in different places.

Holding throughout (assay): Postemergence herbicidal activity, greenhouse trial (visual injury 0-100%)
Format in all cases: in vivo

Assay [1] deals with common lambsquarters (Chenopodium album L., CHEAL). Particulars: Chenopodium album, post-emergence, read-out: % visual injury Obs. Summed up: (§1)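 Read-out is a visual 0–100% injury score against solvent-blank-sprayed controls, taken 20-22 d after treatment; expected mixture effects came from Colby's equation. Two-way combinations in 1.5% v/v crop oil concentrate were sprayed at 187 L/ha onto plants at the second or third true leaf stage.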

In assay [2] the test system is wild oat (Avena fatua, AVEFA). An outline of the steps:
as §1

Assay [3] has as its system ivyleaf morning-glory (Ipomoea hederacea, IPOHE). Particulars: Ipomoea hederacea, post-emergence, read-out: % visual injury Obs. Summed up:
as §1

For assay [4], the system named is chickweed (Stellaria media, STEME). Particulars: Stellaria media, post-emergence, read-out: % visual injury Obs. Summed up:
as §1

The test system of assay [5] is barnyardgrass (Echinochloa crus-galli, ECHCG). Particulars: Echinochloa crus-galli, post-emergence, read-out: % visual injury Obs. Summed up:
as §1

Assay [6] relates to sunflower (Helianthus annuus, HELAN).
Assay [7] concerns nutsedge (Cyperus esculentus, CYPES). Summed up:
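Greenhouse-grown plants at the second to third true leaf stage were sprayed with two-way mixtures in 1.5% v/v Agri-dex crop oil concentrate at 187 L/ha; rates in g ae/ha for component (a) and g ai/ha for component (b). Injury scored visually 0–100% versus solvent-blank controls after 20–22 d, with expected mixture effects from Colby's equation.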

For `Nc1c(F)c(-c2ccc3cc[nH]c3c2F)nc(C(=O)O)c1Cl` [Compound 1], the pest or weed control at 5 g/ha in assay [1] (5 g ae/ha) worked out at 80%; in assay [1] (CHEAL, Compound 1 5 g ae/ha), 90%; in assay [4] (5 g ae/ha) it was 50%; in assay [4] (STEME, Compound 1 5 g ae/ha), 70%; in assay [5] (ECHCG, Compound 1 5 g ae/ha) it was 50%; in assay [7] (Cyperus, post-emergence, 5 g ae/ha, read-out: % visual injury Obs), 10%. Further, the pest or weed control at 10 g/ha in assay [1] (10 g ae/ha) turned out to be 100%; in assay [1] (CHEAL, Compound 1 10 g ae/ha), 100%; in assay [3] (10 g ae/ha), 10%; in assay [3] (IPOHE, Compound 1 10 g ae/ha), 10%; in assay [4] (10 g ae/ha) it was 70%; in assay [4] (STEME, Compound 1 10 g ae/ha), 70%. Moreover, the pest or weed control at 10 g/ha in assay [5] (10 g ae/ha) came out at 60%. The “% visual injury Obs” value in assay [2] (5 g ae/ha) is 0%; in assay [2] (10 g ae/ha), 0%; in assay [6] (5 g ae/ha) it was 90%; in assay [6] (10 g ae/ha), 90%; in assay [6] (HELAN, Compound 1 5 g ae/ha), 70%; in assay [7] (CYPES, Compound 1 5 g ae/ha) it was 10%.
On to `CCCOc1nn(C(=O)NS(=O)(=O)c2ccccc2C(=O)OC)c(=O)n1C` [Propoxycarbazone, propoxycarbazone], for which the pest or weed control at […] was 30% in assay [1] (7.5 g ai/ha); 95% in assay [3] (7.5 g ai/ha); 50% in assay [4] (7.5 g ai/ha); 95% in assay [5] (7.5 g ai/ha); 75% in assay [7] (Cyperus, post-emergence, 7.5 g ai/ha, read-out: % visual injury Obs). Besides, the “% visual injury Obs” value in assay [2] (7.5 g ai/ha) and in assay [6] (7.5 g ai/ha) was 85% each time.
